According to a melting point compilation (Tetko et al.; mined from patent text by program, amines drawn as free bases though some values may be those of a salt):

| SMILES | melting point |
| --- | --- |
| CNS(=O)(=O)c1sccc1CCl | 52 to 53 °C |
| COc1cccc2c(CCN(C3CCC3)C3COc4c(F)ccc(C(N)=O)c4C3)coc12 (stereo not given) | 135 to 145 °C |
| COc1ccc(Cl)cc1C(=O)NCCc1ccc(CCCCCCCCCC(=O)O)cc1 | 97 to 100 °C |
| Cn1cnnc1C(N)(c1ccc(Cl)cc1)c1ccc2c(c1)c(-c1cccc(Cl)c1)cc(=O)n2C (stereo not given) | 210 °C |
| CCCCCCCCCCN=C=S | 71 to 72 °C |
| c1ccc2nc(COc3cccc4ccccc34)ccc2c1 | 99 to 101 °C |
| CSc1sc(C(=O)N2CCCCCC2)c2c1C(=O)CC(C)(C)C2 | 168 to 170 °C |
| CC(=O)N(C)Cc1ccc(CCn2cnc3cc(-c4ccc(Cl)cc4)sc3c2=O)cc1 | 176 to 178 °C |
| Cc1cc(NCC(C)C)c([N+](=O)[O-])c2nnnn12 | 185 to 187 °C |
| COC(=O)C1CCN(Cc2ccc(-c3ccc4c(Nc5ccc(Sc6nccn6C)c(Cl)c5)c(C#N)cnc4c3)nc2)CC1 | 135 to 137 °C |
| CN1CC[C@]2(c3ccccc3)CCCC[C@@]2(O)C1 (relative stereo) | 84 to 87 °C |
| CCON(C(=O)Cc1c(C)cc(Cl)cc1C)C1(C#N)CCN(OC)CC1 | 100 to 103 °C |
| COc1ccc(NC(=S)N2CCn3c(c(C(N)=O)c(Cl)c3-c3ccccc3)C2)cc1 | 176 to 178 °C |
| CCOP(=O)(Cc1ccc(NC(=S)Nc2cc(-c3cc4cc(F)c(F)cc4[nH]3)ccc2OC)cc1)OCC | 180 to 182 °C |
| O=C(C[C@H]1CC[C@@H](C(=O)O)N1Cc1ccccc1)N[C@@H](Cc1ccc(OCc2c(Cl)cccc2Cl)cc1)C(=O)O | 198 to 202 °C |
| CN1C(=O)C(F)ON=C(c2ccccc2)c2cc(Cl)ccc21 (stereo not given) | 218 to 220 °C |
| CCCCCCCCN(CCCCCCCC)c1nc(Nc2ccc3nc(S)sc3c2)nc(N(CCCCCCCC)CCCCCCCC)n1 | 81 to 83 °C |
| CCCCCCC1=CC(O)(C(Br)Br)N(CCCC)C1=O (stereo not given) | 85 to 86 °C |
| CS(=O)(=O)c1ccc(-c2cc(CO)nn2-c2ccc(Cl)cc2)cc1 | 96 to 100 °C |
| O=S(=O)(c1ccccc1)n1ccc2cnccc21 | 127 °C |
| CNc1cc(Cc2c(-c3ccc(OCCN4CCCC4)cc3)sc3cc(O)ccc23)ccc1CN1CCCC1 | 99 to 102 °C |
| Cc1nc(-c2ccc(F)cc2)c(CO)c(C(C)C)c1C#N | 150 °C |
| CC(C)c1noc(-c2c(Cl)ccc(C(=O)c3cnn(C)c3O)c2Cl)n1 | 138 to 144 °C |
| CCOC(=O)c1cc(N)cc(N)c1 | 77 to 78 °C |
| CCOC(=O)c1ncn2c(-c3cccnc3)ccnc12 | 184 to 186 °C |

| SMILES | melting point |
| --- | --- |
| COc1ccc(C2CC(=O)C(=C3SC4NCCNC4S3)C(=O)C2)cc1 (stereo not given) | 160 to 162 °C |
| COC(=O)[C@H]1C[C@H](C(=O)O)Nc2cc(Br)cc(Br)c21 (relative stereo) | 171 to 173 °C |
| CCOC(=O)c1ccc(CCC(=O)O)[nH]1 | 126 to 128 °C |
| N#Cc1ccc(N2CCc3[nH]c4c(cnc5cc(Cl)ccc54)c3C2)cc1 | > 275 °C |
| O=C1NCCn2c1nc1ccccc12 | > 250 °C |
| CCc1cc2c(c(CC)n1)c(C)c(C)c(=O)n2Cc1ccc(-c2ccccc2-c2nnn(C(c3ccccc3)(c3ccccc3)c3ccccc3)n2)cc1 | 159 to 160 °C |
| O=C(NCCc1ccc(Cl)cc1)C1=C(NCCc2ccc(Cl)cc2)CS(=O)(=O)N(Cc2ccc(Cl)c(Cl)c2)c2ccccc21 | 119 to 121 °C |
| CCOC(=O)c1c(S(N)=O)c2ccccc2n1CC (stereo not given) | 78 to 80 °C |
| CC(=O)c1c(NC(C)(C)C)nc(NC(C)(C)C)c(Br)c1C | 99 to 100 °C |
| CCOc1nc(NC(C)C)c2cscc2n1 | 155 to 156 °C |
| COc1ccc(CCNC(=O)C(F)(F)F)c2c1NC(=O)C2=O | 234 to 237 °C |
| O=C(O)CCc1ccc(OCc2ccc(Oc3ccccc3)cc2)c(F)c1 | 123 to 125 °C |
| CCCCCCC(O)CCCCCCCCCCCOCC(O)CNCCO (stereo not given) | 71.8 to 72.5 °C |
| CCc1[nH]c(=O)c(C#N)cc1-c1ccncc1 | > 300 °C |
| OC1(CC2CO2)c2ccccc2CCc2ccccc21 (stereo not given) | 116 to 118 °C |
| COc1ccc(CN2CCN(CCCOc3ccc4c(C)cc(=O)[nH]c4c3)CC2)cc1 | 167 to 168 °C |
| CN(C)c1ccc(-c2[nH]nc3c2C(=O)c2c(NC(=O)CN4CCC(O)CC4)cccc2-3)cc1 | 267 °C |
| CC1CC2C3CCC4CC(O)CCC4(C)C3C(=O)CC2(C)C1C1(C)OCCO1 (stereo not given) | 122 to 124 °C |
| CC(C)(C(=O)O)C1CCN(Cc2ccccc2)CC1 | 195 °C |
| N#Cc1cnnc2ccccc12 | 140 °C |
| COC(=O)C1C(c2cccc([N+](=O)[O-])c2)C(C(=O)OC(C)C)=C(C)NC1(O)c1ccccc1 (stereo not given) | 134 to 135 °C |
| COc1ccc(CNC(=O)C(=O)NCCc2ccccn2)c(OC)c1 | 123 to 124 °C |
| Clc1cc(Cl)cc(-c2cc3cc(Cl)cc(Cl)c3[nH]2)c1 | 189 to 190 °C |
| O=C(c1cc2cc3oc(=O)[nH]c3cc2o1)N1CCC(Cc2ccccc2)CC1 | 205 to 210 °C |
| CC(=O)OCC(=O)c1cc(O)c(O)c([N+](=O)[O-])c1 | 166 to 168 °C |
